Test results taken from ChEMBL document CHEMBL4024706 (Eur J Med Chem, 2017).

What was measured:
Homo sapiens = organism: Homo sapiens; assay: Inhibition of human partial length FLT3 ITD/D835V double mutant expressed in bacterial expression system assessed as residual activity at 1 uM by Kinomescan method relative to control
[1] = molecular target: Serine/threonine-protein kinase SIK3 (Homo sapiens) (UniProt Q9Y2K2); assay: Inhibition of wild-type human partial length QSK (A90 to L395 residues) expressed in mammalian expression system assessed as residual activity at 1 uM by Kinomescan method relative to control
[2] = molecular target: Serine/threonine-protein kinase 24 (Homo sapiens) (UniProt Q9Y6E0); assay: Inhibition of wild-type human partial length MST3 (A30 to S311 residues) expressed in bacterial expression system assessed as residual activity at 1 uM by Kinomescan method relative to control
Sequence of Serine/threonine-protein kinase 24 (Homo sapiens) (Q9Y6E0 whole entry, looked up, the tested form may be a part, canonical isoform): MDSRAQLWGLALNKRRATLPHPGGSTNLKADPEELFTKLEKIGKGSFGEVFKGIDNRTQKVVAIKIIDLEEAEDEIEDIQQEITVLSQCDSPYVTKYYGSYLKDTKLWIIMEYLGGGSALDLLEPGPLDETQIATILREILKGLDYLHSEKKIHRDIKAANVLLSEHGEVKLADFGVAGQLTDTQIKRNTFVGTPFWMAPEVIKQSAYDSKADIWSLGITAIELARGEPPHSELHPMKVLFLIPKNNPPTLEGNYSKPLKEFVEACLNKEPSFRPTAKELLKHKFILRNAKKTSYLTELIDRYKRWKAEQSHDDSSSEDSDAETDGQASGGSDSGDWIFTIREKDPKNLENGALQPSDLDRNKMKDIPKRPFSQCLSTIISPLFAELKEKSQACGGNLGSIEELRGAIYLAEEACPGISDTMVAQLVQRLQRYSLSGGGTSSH

[3] = molecular target: Casein kinase I isoform epsilon (Homo sapiens) (UniProt P49674); assay: Inhibition of wild-type human full length CSNK1E (M1 to K416 residues) expressed in bacterial expression system assessed as residual activity at 1 uM by Kinomescan method relative to control
U2932 = assay: Induction of apoptosis in human U2932 cells assessed as induction of PARP cleavage after 48 hrs by immunoblot; format: functional, cell-based
[4] = tested on: Tyrosine-protein kinase ABL1 (Homo sapiens), P00519 [H396P]; assay: Inhibition of human non-phosphorylated ABL1 H396P mutant (S229 to K512 residues) expressed in mammalian expression system assessed as residual activity at 1 uM by Kinomescan method relative to control
[5] = molecular target: Dual specificity tyrosine-phosphorylation-regulated kinase 1A (Homo sapiens) (UniProt Q13627); assay: Inhibition of wild-type human partial length DYRK1A (H129 to S509 residues) expressed in mammalian expression system assessed as residual activity at 1 uM by Kinomescan method relative to control
[6] = molecular target: SRSF protein kinase 1 (Homo sapiens) (UniProt Q96SB4); assay: Inhibition of wild-type human full length SRPK1 (M1 to S655 residues) expressed in bacterial expression system assessed as residual activity at 1 uM by Kinomescan method relative to control
Sequence of SRSF protein kinase 1 (Homo sapiens) (Q96SB4 whole entry, the tested form may be a part): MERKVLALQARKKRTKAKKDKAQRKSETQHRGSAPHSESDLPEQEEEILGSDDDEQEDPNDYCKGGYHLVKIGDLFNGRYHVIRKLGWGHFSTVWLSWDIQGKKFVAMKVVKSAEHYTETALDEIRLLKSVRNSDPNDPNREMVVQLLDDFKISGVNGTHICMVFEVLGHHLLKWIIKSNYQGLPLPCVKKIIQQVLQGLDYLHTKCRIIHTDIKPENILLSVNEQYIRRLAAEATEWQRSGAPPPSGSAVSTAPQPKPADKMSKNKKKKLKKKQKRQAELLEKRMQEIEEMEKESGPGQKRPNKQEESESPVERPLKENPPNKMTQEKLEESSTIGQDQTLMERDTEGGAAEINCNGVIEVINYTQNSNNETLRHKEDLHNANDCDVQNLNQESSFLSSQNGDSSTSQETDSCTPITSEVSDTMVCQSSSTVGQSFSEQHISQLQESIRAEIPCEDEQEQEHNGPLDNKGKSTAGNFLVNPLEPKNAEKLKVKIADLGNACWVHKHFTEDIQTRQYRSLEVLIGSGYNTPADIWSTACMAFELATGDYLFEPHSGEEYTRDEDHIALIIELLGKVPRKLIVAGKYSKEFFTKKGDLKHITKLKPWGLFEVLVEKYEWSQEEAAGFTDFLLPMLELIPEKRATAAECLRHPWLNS

[7] = molecular target: BDNF/NT-3 growth factors receptor (Homo sapiens) (UniProt Q16620); assay: Inhibition of wild-type human partial length TRKB (Q547 to G838 residues) expressed in mammalian expression system assessed as residual activity at 1 uM by Kinomescan method relative to control
[8] = molecular target: Angiopoietin-1 receptor (Homo sapiens) (UniProt Q02763); assay: Inhibition of wild-type human partial length TIE2 (N804 to T1112 residues) expressed in bacterial expression system assessed as residual activity at 1 uM by Kinomescan method relative to control
[9] = molecular target: Ankyrin repeat and protein kinase domain-containing protein 1 (Homo sapiens) (UniProt Q8NFD2); assay: Inhibition of wild-type human partial length ANKK1 (M1 to A305 residues) expressed in mammalian expression system assessed as residual activity at 1 uM by Kinomescan method relative to control
[10] = AUC (0 to infinity) in Sprague-Dawley rat at 1 mg/kg, iv by LC-MS/MS method; format: ADME, organism-based; parameters: dose 1 mg/kg, route intravenous, time infinity; conditions: in vivo
[11] = molecular target: Serine/threonine-protein kinase tousled-like 2 (Homo sapiens) (UniProt Q86UE8); assay: Inhibition of wild-type human partial length TLK2 (E424 to N749 residues) expressed in bacterial expression system assessed as residual activity at 1 uM by Kinomescan method relative to control
[12] = molecular target: Serine/threonine-protein kinase PAK 5 (Homo sapiens) (UniProt Q9P286); assay: Inhibition of wild-type human partial length PAK7 (Y400 to H719 residues) expressed in bacterial expression system assessed as residual activity at 1 uM by Kinomescan method relative to control
Sequence of Serine/threonine-protein kinase PAK 5 (Homo sapiens) (Q9P286 whole entry, looked up, the tested form may be a part): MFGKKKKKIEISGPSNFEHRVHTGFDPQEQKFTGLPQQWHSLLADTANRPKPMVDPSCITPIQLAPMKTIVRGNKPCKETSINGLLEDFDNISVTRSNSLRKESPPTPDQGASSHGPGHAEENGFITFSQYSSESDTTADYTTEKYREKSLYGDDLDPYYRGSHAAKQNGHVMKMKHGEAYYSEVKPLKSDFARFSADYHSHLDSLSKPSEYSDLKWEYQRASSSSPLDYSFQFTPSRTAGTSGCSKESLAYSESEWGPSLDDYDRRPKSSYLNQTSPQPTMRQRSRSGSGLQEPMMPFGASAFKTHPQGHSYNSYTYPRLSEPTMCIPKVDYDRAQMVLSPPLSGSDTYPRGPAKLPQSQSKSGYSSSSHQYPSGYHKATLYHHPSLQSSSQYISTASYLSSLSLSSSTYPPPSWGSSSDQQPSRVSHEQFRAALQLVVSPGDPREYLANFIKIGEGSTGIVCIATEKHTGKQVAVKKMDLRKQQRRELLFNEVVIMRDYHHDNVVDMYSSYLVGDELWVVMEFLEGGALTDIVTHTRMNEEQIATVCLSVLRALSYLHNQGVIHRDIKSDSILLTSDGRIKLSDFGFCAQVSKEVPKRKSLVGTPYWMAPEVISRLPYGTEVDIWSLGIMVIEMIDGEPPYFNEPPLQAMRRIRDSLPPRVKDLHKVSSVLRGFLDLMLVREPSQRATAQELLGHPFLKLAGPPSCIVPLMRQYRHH

[13] = molecular target: Serine/threonine-protein kinase D2 (Homo sapiens) (UniProt Q9BZL6); assay: Inhibition of wild-type human partial length PRKD2 (A519 to E838 residues) expressed in bacterial expression system assessed as residual activity at 1 uM by Kinomescan method relative to control
[14] = molecular target: Receptor-type tyrosine-protein kinase FLT3 (Homo sapiens) (UniProt P36888); assay: Inhibition of wild-type human partial length FLT3 (V592 to Y969 residues) expressed in bacterial expression system assessed as residual activity at 1 uM by Kinomescan method relative to control
[15] = molecular target: Ephrin type-B receptor 1 (Homo sapiens) (UniProt P54762); assay: Inhibition of wild-type human partial length EPHB1 (P589 to T911 residues) expressed in bacterial expression system assessed as residual activity at 1 uM by Kinomescan method relative to control
Sequence of Ephrin type-B receptor 1 (Homo sapiens) (P54762 whole entry, the tested form may be a part): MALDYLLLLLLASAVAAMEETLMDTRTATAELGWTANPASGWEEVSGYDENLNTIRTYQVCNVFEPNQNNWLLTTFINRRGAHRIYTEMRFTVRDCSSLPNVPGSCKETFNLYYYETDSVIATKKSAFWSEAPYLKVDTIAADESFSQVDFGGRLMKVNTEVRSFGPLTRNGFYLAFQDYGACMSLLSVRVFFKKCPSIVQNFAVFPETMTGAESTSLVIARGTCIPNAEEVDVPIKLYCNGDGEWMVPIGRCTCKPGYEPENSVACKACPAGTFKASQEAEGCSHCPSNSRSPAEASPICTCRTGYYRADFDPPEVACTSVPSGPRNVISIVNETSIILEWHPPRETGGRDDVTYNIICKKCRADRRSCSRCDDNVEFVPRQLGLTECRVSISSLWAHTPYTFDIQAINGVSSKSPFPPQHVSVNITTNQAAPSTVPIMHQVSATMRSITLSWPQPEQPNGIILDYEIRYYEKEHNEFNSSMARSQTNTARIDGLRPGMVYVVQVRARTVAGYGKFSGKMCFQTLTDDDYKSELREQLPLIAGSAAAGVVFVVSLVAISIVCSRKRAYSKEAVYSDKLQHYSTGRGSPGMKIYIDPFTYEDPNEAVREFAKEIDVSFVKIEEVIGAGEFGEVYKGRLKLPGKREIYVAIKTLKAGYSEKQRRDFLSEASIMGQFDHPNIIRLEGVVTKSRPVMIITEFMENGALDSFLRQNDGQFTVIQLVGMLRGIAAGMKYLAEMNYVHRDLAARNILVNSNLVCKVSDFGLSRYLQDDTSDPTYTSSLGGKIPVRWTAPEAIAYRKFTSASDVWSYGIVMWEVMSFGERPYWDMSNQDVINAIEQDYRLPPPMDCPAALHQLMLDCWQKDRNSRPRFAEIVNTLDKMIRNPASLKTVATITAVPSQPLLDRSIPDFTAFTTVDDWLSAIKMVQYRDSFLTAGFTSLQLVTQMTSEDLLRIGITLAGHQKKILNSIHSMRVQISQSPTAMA

[16] = molecular target: Dual specificity mitogen-activated protein kinase kinase 2 (Homo sapiens) (UniProt P36507); assay: Inhibition of wild-type human full length MEK2 (M1 to V400 residues) expressed in mammalian expression system assessed as residual activity at 1 uM by Kinomescan method relative to control
Sequence of Dual specificity mitogen-activated protein kinase kinase 2 (Homo sapiens) (P36507 whole entry, the tested form may be a part): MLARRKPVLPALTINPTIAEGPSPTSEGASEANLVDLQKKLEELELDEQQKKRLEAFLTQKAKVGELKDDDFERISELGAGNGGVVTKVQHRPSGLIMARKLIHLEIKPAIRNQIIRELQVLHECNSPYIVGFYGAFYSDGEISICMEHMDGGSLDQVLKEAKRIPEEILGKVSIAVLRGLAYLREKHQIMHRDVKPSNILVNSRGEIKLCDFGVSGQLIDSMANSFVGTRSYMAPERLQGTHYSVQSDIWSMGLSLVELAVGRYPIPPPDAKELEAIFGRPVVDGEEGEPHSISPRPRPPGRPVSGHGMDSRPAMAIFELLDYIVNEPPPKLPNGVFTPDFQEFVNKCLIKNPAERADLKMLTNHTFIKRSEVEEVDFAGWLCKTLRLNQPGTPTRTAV

[17] = molecular target: Tyrosine-protein kinase BTK (Homo sapiens, UniProt Q06187, C481S); assay: Irreversible inhibition of recombinant full length 3'-FLAG-tagged BTK C481S mutant (unknown origin) expressed in HEK293T cells assessed as reduction in Y223 phosphorylation measured after 4 hrs by Western blot method; format: cell-based
[18] = molecular target: Aurora kinase B (Homo sapiens) (UniProt Q96GD4); assay: Inhibition of wild-type human partial length AURKB (D25 to A303 residues) expressed in mammalian expression system assessed as residual activity at 1 uM by Kinomescan method relative to control
Sequence of Aurora kinase B (Homo sapiens) (Q96GD4 whole entry, the tested form may be a part): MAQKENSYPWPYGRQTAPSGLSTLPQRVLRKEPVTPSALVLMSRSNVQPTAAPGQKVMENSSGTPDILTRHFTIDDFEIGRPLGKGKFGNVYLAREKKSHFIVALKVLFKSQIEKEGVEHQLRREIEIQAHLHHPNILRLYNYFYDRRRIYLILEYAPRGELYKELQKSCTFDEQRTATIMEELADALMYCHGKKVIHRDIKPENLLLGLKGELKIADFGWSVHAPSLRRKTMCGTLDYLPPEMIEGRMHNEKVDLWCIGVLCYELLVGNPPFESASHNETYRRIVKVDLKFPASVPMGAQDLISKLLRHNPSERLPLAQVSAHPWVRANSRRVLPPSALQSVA

[19] = molecular target: Ephrin type-B receptor 6 (Homo sapiens) (UniProt O15197); assay: Inhibition of wild-type human partial length EPHB6 (Q634 to P948 residues) expressed in mammalian expression system assessed as residual activity at 1 uM by Kinomescan method relative to control
[20] = molecular target: Cyclin-G-associated kinase (Homo sapiens) (UniProt O14976); assay: Inhibition of wild-type human partial length GAK (G13 to Y338 residues) expressed in bacterial expression system assessed as residual activity at 1 uM by Kinomescan method relative to control
Sequence of Cyclin-G-associated kinase (Homo sapiens) (O14976 whole entry, the tested form may be a part): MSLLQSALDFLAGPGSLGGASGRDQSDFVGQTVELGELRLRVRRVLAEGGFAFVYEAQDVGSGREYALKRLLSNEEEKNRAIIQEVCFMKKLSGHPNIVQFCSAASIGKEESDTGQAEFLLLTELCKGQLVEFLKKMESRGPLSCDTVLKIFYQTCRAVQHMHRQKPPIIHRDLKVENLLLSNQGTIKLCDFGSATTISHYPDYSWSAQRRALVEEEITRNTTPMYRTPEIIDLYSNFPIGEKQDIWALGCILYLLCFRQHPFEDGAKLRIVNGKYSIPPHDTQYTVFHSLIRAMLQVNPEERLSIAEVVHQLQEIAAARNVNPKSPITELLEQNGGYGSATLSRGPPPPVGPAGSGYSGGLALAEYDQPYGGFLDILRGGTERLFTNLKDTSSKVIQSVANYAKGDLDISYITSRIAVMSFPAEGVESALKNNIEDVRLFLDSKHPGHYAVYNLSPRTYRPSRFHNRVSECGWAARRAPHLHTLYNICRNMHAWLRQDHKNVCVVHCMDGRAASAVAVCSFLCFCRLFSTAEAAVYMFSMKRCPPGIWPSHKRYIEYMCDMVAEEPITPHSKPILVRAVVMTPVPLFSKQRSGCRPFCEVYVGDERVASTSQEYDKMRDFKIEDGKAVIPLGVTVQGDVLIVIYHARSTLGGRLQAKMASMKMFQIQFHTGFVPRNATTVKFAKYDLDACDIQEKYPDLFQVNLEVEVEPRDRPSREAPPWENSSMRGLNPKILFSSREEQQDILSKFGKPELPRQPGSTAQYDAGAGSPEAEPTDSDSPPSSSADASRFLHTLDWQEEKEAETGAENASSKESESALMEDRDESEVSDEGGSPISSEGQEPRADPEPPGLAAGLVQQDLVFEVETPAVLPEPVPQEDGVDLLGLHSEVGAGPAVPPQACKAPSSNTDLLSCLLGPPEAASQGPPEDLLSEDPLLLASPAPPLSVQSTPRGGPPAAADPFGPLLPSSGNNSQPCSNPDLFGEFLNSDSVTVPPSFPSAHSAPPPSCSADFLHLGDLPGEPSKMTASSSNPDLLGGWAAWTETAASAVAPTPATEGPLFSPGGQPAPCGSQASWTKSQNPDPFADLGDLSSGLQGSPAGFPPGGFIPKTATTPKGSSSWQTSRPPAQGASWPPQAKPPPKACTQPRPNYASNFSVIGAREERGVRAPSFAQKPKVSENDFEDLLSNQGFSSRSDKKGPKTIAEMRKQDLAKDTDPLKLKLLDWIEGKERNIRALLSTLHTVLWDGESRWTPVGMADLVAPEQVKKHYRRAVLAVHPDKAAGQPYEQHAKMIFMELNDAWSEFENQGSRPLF

[21] = molecular target: Epidermal growth factor receptor (Homo sapiens, UniProt P00533); assay: Inhibition of recombinant human N-terminal GST-tagged wild-type EGFR (695 to end residues) expressed in baculovirus infected Sf9 insect cells using poly (Glu,Tyr)4:1 as substrate pretreated for 60 mins followed by substrate addition after 1 hr by ADP-Glo luminescence assay
[22] = molecular target: Serine/threonine-protein kinase mTOR (Homo sapiens) (UniProt P42345); assay: Inhibition of wild-type human partial length MTOR (L1382 to W2549 residues) expressed in mammalian expression system assessed as residual activity at 1 uM by Kinomescan method relative to control
[23] = molecular target: Serine/threonine-protein kinase pim-2 (Homo sapiens) (UniProt Q9P1W9); assay: Inhibition of wild-type human partial length PIM2 (M1 to E291 residues) expressed in bacterial expression system assessed as residual activity at 1 uM by Kinomescan method relative to control
[24] = molecular target: Serine/threonine-protein kinase Nek1 (Homo sapiens) (UniProt Q96PY6); assay: Inhibition of wild-type human partial length NEK1 (M1 to K278 residues) expressed in bacterial expression system assessed as residual activity at 1 uM by Kinomescan method relative to control

C=CC(=O)Nc1cc(Nc2cc(-c3cccc(NC(=O)c4ccc(C(C)(C)C)cc4)c3C)cn(C)c2=O)ccc1C(=O)N1CCOCC1
Activity (Homo sapiens): 100%
Activity [1]: 78%
Activity [2]: 98%
Activity [3]: 100%
Activity (U2932): Dose-dependent effect
Activity [4]: 100%
Activity [5]: 100%
Activity [6]: 100%
Activity [7]: 80%
Activity [8]: 100%
Activity [9]: 98%
AUC(0-inf) [10]: 183 ng·h/mL
Activity [11]: 100%
Activity [12]: 98%
Activity [13]: 100%
Activity [14]: 94%
Activity [15]: 100%
Activity [16]: 100%
EC50 [17]: > 0.1 µM
Activity [18]: 98%
Activity [19]: 100%
Activity [20]: 99%
IC50 [21]: > 10 µM
Activity [22]: 100%
Activity [23]: 90%
Activity [24]: 100%
